# Data published in ChEMBL document CHEMBL1142994, “Structure-based design, synthesis, and biological evaluation of potent and selective macrocyclic checkpoint kinase 1 inhibitors” (J Med Chem, 2007).
# Columns and labels:
# [1] = target: T1, Serine/threonine-protein kinase Chk1 (Homo sapiens, UniProt O14757); assay: Inhibition of recombinant Chk1
# T1 sequence (O14757 whole entry): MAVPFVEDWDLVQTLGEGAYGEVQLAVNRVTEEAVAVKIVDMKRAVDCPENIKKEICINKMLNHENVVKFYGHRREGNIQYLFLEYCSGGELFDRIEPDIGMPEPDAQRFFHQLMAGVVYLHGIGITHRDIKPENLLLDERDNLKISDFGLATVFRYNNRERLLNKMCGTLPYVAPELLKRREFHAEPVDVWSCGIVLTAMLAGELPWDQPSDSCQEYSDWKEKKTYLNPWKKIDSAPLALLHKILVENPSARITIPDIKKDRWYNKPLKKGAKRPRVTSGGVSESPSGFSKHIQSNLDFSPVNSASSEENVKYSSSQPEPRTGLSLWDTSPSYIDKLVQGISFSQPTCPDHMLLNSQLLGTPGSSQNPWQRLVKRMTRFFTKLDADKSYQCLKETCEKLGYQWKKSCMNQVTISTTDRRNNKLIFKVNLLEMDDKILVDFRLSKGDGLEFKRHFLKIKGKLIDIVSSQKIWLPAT
# HeLa [2] = assay: Cytotoxicity against HeLa cells in presence of doxorubicin by MTS assay; assay type: functional, cell-based, Homo sapiens
# HeLa [3] = assay: Cytotoxicity against HeLa cells by MTS assay; assay type: functional, cell-based, Homo sapiens
# NCI-H1299 [4] = assay: Accumulation of H1299 cells in G2/M phase measured as cell cycle arrest by FACS assay; assay type: functional, cell-based, Homo sapiens
# NCI-H1299 [5] = assay: Inhibition of accumulation of H1299 cells in G2/M phase in presence of doxorubicin by FACS assay; assay type: functional, cell-based, Homo sapiens
# [6] = target: T2, Serine/threonine-protein kinase Sgk1 (Homo sapiens, UniProt O00141); assay: Inhibition of SGK
# T2 sequence (O00141 whole entry): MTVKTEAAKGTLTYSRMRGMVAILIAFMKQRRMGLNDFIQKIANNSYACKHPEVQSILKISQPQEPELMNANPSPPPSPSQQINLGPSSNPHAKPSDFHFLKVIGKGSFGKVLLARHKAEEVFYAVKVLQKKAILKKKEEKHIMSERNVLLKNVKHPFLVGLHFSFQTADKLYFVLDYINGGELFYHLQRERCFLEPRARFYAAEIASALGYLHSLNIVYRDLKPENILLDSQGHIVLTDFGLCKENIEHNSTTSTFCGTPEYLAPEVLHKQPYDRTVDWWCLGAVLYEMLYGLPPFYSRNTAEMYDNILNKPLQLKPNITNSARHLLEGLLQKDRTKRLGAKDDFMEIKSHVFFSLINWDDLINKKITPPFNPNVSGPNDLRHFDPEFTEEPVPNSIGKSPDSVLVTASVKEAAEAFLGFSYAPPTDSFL
# [7] = target: T3, Calcium/calmodulin-dependent protein kinase type IV (Homo sapiens, UniProt Q16566); assay: Inhibition of Camk4
# T3 sequence (Q16566 whole entry): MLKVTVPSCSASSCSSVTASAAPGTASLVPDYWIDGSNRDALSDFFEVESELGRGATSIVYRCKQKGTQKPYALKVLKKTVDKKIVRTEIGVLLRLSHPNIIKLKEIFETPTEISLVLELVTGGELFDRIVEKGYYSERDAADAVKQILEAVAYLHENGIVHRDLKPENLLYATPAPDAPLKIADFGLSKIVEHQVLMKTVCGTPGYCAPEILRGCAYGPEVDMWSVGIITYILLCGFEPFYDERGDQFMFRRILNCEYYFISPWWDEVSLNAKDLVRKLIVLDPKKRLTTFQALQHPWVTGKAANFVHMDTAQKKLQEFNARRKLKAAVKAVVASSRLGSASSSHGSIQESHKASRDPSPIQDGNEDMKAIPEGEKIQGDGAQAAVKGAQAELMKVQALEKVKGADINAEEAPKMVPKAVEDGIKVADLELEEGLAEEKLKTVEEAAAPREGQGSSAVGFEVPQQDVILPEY
# [8] = Homo sapiens, HeLa, read-out: EC50
smiles,measurement,setting,value
N#Cc1ncc2nc1OCCCCCOc1cc(OCc3cccnc3)c(Cl)cc1NC(=O)N2,IC50,[1],9 nM
CCN(CC)CC#Cc1cc2c(cc1Cl)NC(=O)Nc1cnc(C#N)c(n1)OCCCCCO2,IC50,[1],2 nM
CCNc1cc2c(cc1Cl)NC(=O)Nc1cnc(C#N)c(n1)OCCCCCO2,IC50,[1],4 nM
N#Cc1ncc2nc1OCCCCOc1ccc(Cl)cc1NC(=O)N2,EC50,"HeLa [2]; Homo sapiens, HeLa",3080 nM
same,EC50,HeLa [3],57600 nM
same,EC50,"NCI-H1299 [4]; Homo sapiens, NCI-H1299",> 10000 nM
same,IC50,[1],6 nM
N#Cc1ncc2nc1OCCCCCOc1cc(NCc3cncs3)c(Cl)cc1NC(=O)N2,EC50,"HeLa [2]; Homo sapiens, HeLa",1200 nM
same,EC50,HeLa [3]; [8],> 59000 nM
same,EC50,"NCI-H1299 [4]; Homo sapiens, NCI-H1299",> 10000 nM
same,EC50,"NCI-H1299 [5]; Homo sapiens, NCI-H1299",110 nM
same,IC50,[1],6 nM
O=C1Nc2cncc(n2)OCCCCCOc2ccc(Cl)cc2N1,EC50,"HeLa [2]; Homo sapiens, HeLa",37800 nM
same,EC50,HeLa [3],>59000 nM
same,EC50,"NCI-H1299 [4]; Homo sapiens, NCI-H1299",> 10000 nM
same,EC50,"NCI-H1299 [5]; Homo sapiens, NCI-H1299",7500 nM
same,IC50,[1],10 nM
CC(C)Nc1cc2c(cc1Cl)NC(=O)Nc1cnc(C#N)c(n1)OCCCCCO2,IC50,[1],11 nM
N#Cc1ncc2nc1OCCCCCOc1cc(O)c(Cl)cc1NC(=O)N2,EC50,"HeLa [2]; Homo sapiens, HeLa",1900 nM
same,EC50,HeLa [3]; [8],> 59000 nM
same,IC50,[1],6 nM
N#Cc1ncc2nc1OCCCCCOc1cc(NCc3c[nH]cn3)c(Cl)cc1NC(=O)N2,IC50,[1],231 nM
N#Cc1ncc2nc1OCCCCCOc1cc(NCc3cnco3)c(Cl)cc1NC(=O)N2,IC50,[1],7 nM
N#Cc1ncc2nc1OCCCCCOc1cc(NCc3cccnc3)c(Cl)cc1NC(=O)N2,EC50,HeLa [2]; hela,1600 nM
same,EC50,"HeLa [3]; hela, read-out: EC50",> 59000 nM
same,EC50,NCI-H1299 [4]; nci-h1299,> 10000 nM
same,EC50,NCI-H1299 [5]; nci-h1299,330 nM
same,IC50,[1],12 nM
CC(C)CNc1cc2c(cc1Cl)NC(=O)Nc1cnc(C#N)c(n1)OCCCCCO2,IC50,[1],17 nM
CN(C)CCOc1cc2c(cc1Cl)NC(=O)Nc1cnc(C#N)c(n1)OCCCCCO2,IC50,[1],1 nM
CC(O)C#Cc1cc2c(cc1Cl)NC(=O)Nc1cnc(C#N)c(n1)OCCCCCO2 (centres undefined),IC50,[1],26 nM
N#Cc1ncc2nc1OCCCCCOc1cc(C#CCO)c(Cl)cc1NC(=O)N2,IC50,[1],10 nM
N#Cc1ncc2nc1OCCCCCOc1cc(OCc3ccncc3)c(Cl)cc1NC(=O)N2,IC50,[1],12 nM
CCOc1cc2c(cc1Cl)NC(=O)Nc1cnc(C#N)c(n1)OCCCCCO2,IC50,[1],6 nM
CC(C)CCOc1cc2c(cc1Cl)NC(=O)Nc1cnc(C#N)c(n1)OCCCCCO2,IC50,[1],1060 nM
N#Cc1ncc2nc1OCCCCCOc1cc(CC(O)CO)c(Cl)cc1NC(=O)N2 (centres undefined),IC50,[1],5 nM
N#Cc1ncc2nc1OCCCCCOc1cc(OCCO)c(Cl)cc1NC(=O)N2,EC50,"HeLa [2]; Homo sapiens, HeLa",3010 nM
same,EC50,HeLa [3]; [8],> 59000 nM
same,EC50,"NCI-H1299 [4]; Homo sapiens, NCI-H1299",> 10000 nM
same,EC50,"NCI-H1299 [5]; Homo sapiens, NCI-H1299",700 nM
CCCCNc1cc2c(cc1Cl)NC(=O)Nc1cnc(C#N)c(n1)OCCCCCO2,IC50,[1],15 nM
N#Cc1ncc2nc1OCCCCCOc1cc(CCCO)c(Cl)cc1NC(=O)N2,Ki,[6],> 10000 nM
same,EC50,"HeLa [2]; Homo sapiens, HeLa",860 nM
same,EC50,HeLa [3]; [8],28700 nM
same,EC50,"NCI-H1299 [4]; Homo sapiens, NCI-H1299",> 10000 nM
same,EC50,"NCI-H1299 [5]; Homo sapiens, NCI-H1299",190 nM
same,Ki,[7],> 10000 nM
CN(C)CC(=O)Nc1cc2c(cc1Cl)NC(=O)Nc1cnc(C#N)c(n1)OCCCCCO2,IC50,[1],1 nM
Cn1cncc1CNc1cc2c(cc1Cl)NC(=O)Nc1cnc(C#N)c(n1)OCCCCCO2,IC50,[1],2 nM
